Test results reported in PMC9204298, “Inhibiting UCH-L5: Rational Design of a Cyclic Ubiquitin-Based Peptide Inhibitor” (Frontiers in Molecular Biosciences, 2022).
Where a SMILES comes first, the peptide text is derived from it. The star is where a group is joined. Cbz = O=C(OCc1ccccc1)*

Tested on: MCF7 cells, level of ubiquitinated substrates
Experiment: Western blot of ubiquitinated substrates in MCF7 cells
Type: cell-based
Settings: control, n = 3, Figures 7A,B
Description: DMSO was used as vehicle control. Following the end of the incubation times, MCF7 cells were harvested using 3X NuPAGE SDS Sample buffer (Invitrogen, Cat# NP0007) containing β-mercaptoethanol and 1x DNAse and sonicated in Bioruptor Pico sonicator (Diagenode) (10-sec pulse on, 10 s pulse off for 10 cycles). After boiling them at 95°C for 10 min, the samples run on 4–12% SDS-PAGE agarose gel using MOPS buffer. Proteins were transferred to the nitrocellulose membrane. Ubiquitinated substrates were detected using a mouse anti-ubiquitin (P4D1) antibody (Santa Cruz, Cat# sc-8017). Mouse anti-β-actin (Sigma-Aldrich, Cat# A5441, in 1:10000 dilution) was used to detect actin as a loading control. 800CW goat anti-mouse IgG (H + L) (Li-COR, Cat# 926–32210, 1:5000) were used as secondary antibodies. The signal was detected using direct imaging by Odyssey® CLx Infrared Imaging System (LI-COR). The experiment was repeated in triplicates. The total amount of ubiquitinated substrates and the actin level was quantified using Licor Image studio densitometry software, and the total level of ubiquitinated substrates was normalized to the actin level.

SMILES | level of ubiquitinated substrates (MG132 5 µM, 4 h) | level of ubiquitinated substrates (bAP15 1 µM, 3 h)
CC(C)C[C@@H](C=O)NC(=O)[C@H](CC(C)C)NC(=O)[C@H](CC(C)C)NC(=O)OCc1ccccc1 [MG132] (Cbz-Leu-Leu-Leu-aldehyde) | increased the level of ubiquitinated substrates | –
C=CC(=O)N1C/C(=C\c2ccc([N+](=O)[O-])cc2)C(=O)/C(=C/c2ccc([N+](=O)[O-])cc2)C1 [bAP15] | – | increased the level of ubiquitinated substrates
